Measured values taken from PubChem BioAssay AID1963830 (Molecular Pharmacology Branch, DTP, NCI, 2024).

System: 922993-354-T-J3-PDC complex spheroid viability
Assay: Anticancer human tumor 922993-354-T-J3-PDC patient-derived endometrial carcinoma cell line growth inhibition [POLQ]
Conditions: for IC50: curve of first compound; for viability, T/C: stronger effect = lower value
Outline: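 Complex spheroid viability model combining PDC tumour cells with endothelial (HUVEC) and MSC stromal cells. Novobiocin, ART-558 or RP6685 were tested singly and in combination with standard and investigational anticancer drugs. Each was titrated in half-log steps from near clinical Cmax, or from 10 microM where Cmax was unknown.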

[1] = second compound 0.0316 µM, first compound 0.0316 µM
[2] = second compound 0.0316 µM, first compound 0.1 µM
[3] = second compound 0.0316 µM, first compound 0.316 µM
[4] = second compound 0.0316 µM, first compound 1 µM
[5] = second compound 0.0316 µM, first compound 3.16 µM
[6] = second compound 0.0316 µM, first compound 10 µM
[7] = second compound 0.1 µM, first compound 0.0316 µM
[8] = second compound 0.1 µM, first compound 0.1 µM
[9] = second compound 0.1 µM, first compound 0.316 µM
[10] = second compound 0.1 µM, first compound 1 µM
[11] = second compound 0.1 µM, first compound 3.16 µM
[12] = second compound 0.1 µM, first compound 10 µM
[13] = second compound 0.316 µM, first compound 0.0316 µM
[14] = second compound 0.316 µM, first compound 0.1 µM
[15] = second compound 0.316 µM, first compound 0.316 µM
[16] = second compound 0.316 µM, first compound 1 µM
[17] = second compound 0.316 µM, first compound 3.16 µM
[18] = second compound 0.316 µM, first compound 10 µM
[19] = second compound 1 µM, first compound 0.0316 µM
[20] = second compound 1 µM, first compound 0.1 µM
[21] = second compound 1 µM, first compound 0.316 µM
[22] = second compound 1 µM, first compound 1 µM
[23] = second compound 1 µM, first compound 3.16 µM
[24] = second compound 1 µM, first compound 10 µM
[25] = second compound 3.16 µM, first compound 0.0316 µM
[26] = second compound 3.16 µM, first compound 0.1 µM
[27] = second compound 3.16 µM, first compound 0.316 µM
[28] = second compound 3.16 µM, first compound 1 µM
[29] = second compound 3.16 µM, first compound 3.16 µM
[30] = second compound 3.16 µM, first compound 10 µM
[31] = second compound 10 µM, first compound 0.0316 µM
[32] = second compound 10 µM, first compound 0.1 µM
[33] = second compound 10 µM, first compound 0.316 µM
[34] = second compound 10 µM, first compound 1 µM
[35] = second compound 10 µM, first compound 3.16 µM
[36] = second compound 10 µM, first compound 10 µM
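Further: spheroids exposed to the agents for one week.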
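Wherever viability, T/C is given: 100% = DMSO vehicle control wells.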

`C#Cc1c(F)ccc2cc(O)cc(-c3ncc4c(N5CC6CCC(C5)N6)nc(OCC56CCCN5CC(F)C6)nc4c3F)c12` (stereo unspecified) + COC1C(OC(N)=O)C(O)C(Oc2ccc3c(O)c(NC(=O)c4ccc(O)c(CC=C(C)C)c4)c(=O)oc3c2C)OC1(C)C gave an IC50 (second compound 0.0316 µM) of over 10 µM, an IC50 (second compound 0.1 µM) of over 10 µM and an IC50 (second compound 0.316 µM) of over 10 µM. The IC50 (second compound 1 µM) was over 10 µM, the IC50 (second compound 3.16 µM) was over 10 µM and the IC50 (second compound 10 µM) was over 10 µM. It also gave a viability, T/C [1] of 100%, a viability, T/C [2] of 97.4% and a viability, T/C [3] of 90.5%. It also gave a viability, T/C [4] of 101%, a viability, T/C [5] of 98% and a viability, T/C [6] of 79.5%. It also gave a viability, T/C [7] of 105%, a viability, T/C [8] of 101% and a viability, T/C [9] of 98.8%. It also gave a viability, T/C [10] of 90.3%, a viability, T/C [11] of 94.9% and a viability, T/C [12] of 90.4%. It also gave a viability, T/C [13] of 105%, a viability, T/C [14] of 98.4% and a viability, T/C [15] of 104%. It also gave a viability, T/C [16] of 87.2%, a viability, T/C [17] of 92.8% and a viability, T/C [18] of 90%. It also gave a viability, T/C [19] of 96.9%, a viability, T/C [20] of 98.8% and a viability, T/C [21] of 94.9%. It also gave a viability, T/C [22] of 94.2%, a viability, T/C [23] of 93% and a viability, T/C [24] of 86.9%. The viability, T/C [25] was 96.9%, the viability, T/C [26] was 90.3% and the viability, T/C [27] was 98.3%. The viability, T/C [28] was 81.7%, the viability, T/C [29] was 99.5% and the viability, T/C [30] was 74.9%. The viability, T/C [31] was 81.8%, the viability, T/C [32] was 86.2% and the viability, T/C [33] was 90.4%. For the same molecule, the viability, T/C [34] was 89.5%, the viability, T/C [35] was 96.2% and the viability, T/C [36] was 72.1%.

`C=CC(=O)N1CCN(c2nc(=O)n(-c3c(C)ccnc3C(C)C)c3nc(-c4c(O)cccc4F)c(F)cc23)C(C)C1` (stereo unspecified) + COC1C(OC(N)=O)C(O)C(Oc2ccc3c(O)c(NC(=O)c4ccc(O)c(CC=C(C)C)c4)c(=O)oc3c2C)OC1(C)C was tested, and the IC50 (second compound 0.0316 µM) was over 10 µM, the IC50 (second compound 0.1 µM) was over 10 µM and the IC50 (second compound 0.316 µM) was over 10 µM. The IC50 (second compound 1 µM) was over 10 µM, the IC50 (second compound 3.16 µM) was over 10 µM and the IC50 (second compound 10 µM) was over 10 µM. The viability, T/C [1] was 102%, the viability, T/C [2] was 94.8% and the viability, T/C [3] was 98.9%. It also gave a viability, T/C [4] of 101%, a viability, T/C [5] of 92.8% and a viability, T/C [6] of 84.1%. It also gave a viability, T/C [7] of 98.9%, a viability, T/C [8] of 107% and a viability, T/C [9] of 93.3%. For the same molecule, the viability, T/C [10] was 91.4%, the viability, T/C [11] was 88.3% and the viability, T/C [12] was 97.6%. The viability, T/C [13] was 102%, the viability, T/C [14] was 101% and the viability, T/C [15] was 103%. The viability, T/C [16] was 96.5%, the viability, T/C [17] was 96.2% and the viability, T/C [18] was 99.6%. For the same molecule, the viability, T/C [19] was 101%, the viability, T/C [20] was 97.5% and the viability, T/C [21] was 97.4%. The viability, T/C [22] was 98.6%, the viability, T/C [23] was 93% and the viability, T/C [24] was 104%. It also gave a viability, T/C [25] of 102%, a viability, T/C [26] of 94.2% and a viability, T/C [27] of 95.9%. For the same molecule, the viability, T/C [28] was 92%, the viability, T/C [29] was 97.4% and the viability, T/C [30] was 101%. The viability, T/C [31] was 85.8%, the viability, T/C [32] was 88.4% and the viability, T/C [33] was 89.8%. It also gave a viability, T/C [34] of 85.9%, a viability, T/C [35] of 88.3% and a viability, T/C [36] of 85%.

`CC(C)n1c(=O)n(C)c2cnc3cc(F)c(-c4ccc(OCCCN5CCCCC5)nc4)cc3c21` + COC1C(OC(N)=O)C(O)C(Oc2ccc3c(O)c(NC(=O)c4ccc(O)c(CC=C(C)C)c4)c(=O)oc3c2C)OC1(C)C was tested, and the IC50 (second compound 0.0316 µM) was over 10 µM, the IC50 (second compound 0.1 µM) was over 10 µM and the IC50 (second compound 0.316 µM) was over 10 µM. It also gave an IC50 (second compound 1 µM) of over 10 µM, an IC50 (second compound 3.16 µM) of over 10 µM and an IC50 (second compound 10 µM) of over 10 µM. The viability, T/C [1] was 111%, the viability, T/C [2] was 90.8% and the viability, T/C [3] was 104%. The viability, T/C [4] was 94.8%, the viability, T/C [5] was 84.2% and the viability, T/C [6] was 59%. The viability, T/C [7] was 103%, the viability, T/C [8] was 97.2% and the viability, T/C [9] was 104%. The viability, T/C [10] was 91.9%, the viability, T/C [11] was 83.3% and the viability, T/C [12] was 63.7%. It also gave a viability, T/C [13] of 99.2%, a viability, T/C [14] of 104% and a viability, T/C [15] of 94.1%. For the same molecule, the viability, T/C [16] was 93.5%, the viability, T/C [17] was 84.3% and the viability, T/C [18] was 66.5%. It also gave a viability, T/C [19] of 88.9%, a viability, T/C [20] of 98.3% and a viability, T/C [21] of 100%. The viability, T/C [22] was 91.9%, the viability, T/C [23] was 86.9% and the viability, T/C [24] was 70.3%. The viability, T/C [25] was 95.9%, the viability, T/C [26] was 104% and the viability, T/C [27] was 85.5%. The viability, T/C [28] was 86.2%, the viability, T/C [29] was 85.1% and the viability, T/C [30] was 56.7%. The viability, T/C [31] was 81%, the viability, T/C [32] was 77.1% and the viability, T/C [33] was 89.6%. The viability, T/C [34] was 74.1%, the viability, T/C [35] was 70.2% and the viability, T/C [36] was 63%.
